Columns and labels:
[1] = cited from earlier work
[2] = system: TNF production; test: TNF production in human blood / antibiotic-treated cultures; assay type: cell-based
Text: Taurolidine and/or Taurultam prevent over-production of cytokines in the patient by monocytes of the blood.

[3] = system: bacteria and fungi; test: Antimicrobial activity (general statements); assay type: cell-based
[4] = system: bacteria and fungi; conditions: known antimicrobial substances; cited from earlier work
[5] = system: VRE, designated HAM-1; conditions: commonly encountered VRE; cited from earlier work
[6] = system: Staph. app.; test: Resistance to Vancomycin (30 μg/Disc), Staph. app.; assay type: cell-based
Procedure: ^1 VE30: Resistance to Vancomycin (30 μg/Disc)

[7] = system: EMRSA 15 strains; conditions: local EMRSA 15 strains, typically; cited from earlier work
[8] = system: S. aureus NCTC 6571; test: Disc sensitivity testing (Stokes), reference strain; assay type: cell-based, Staphylococcus aureus; conditions: CLX
Procedure: All routine sensitivity testing was performed using a standard disc diffusion technique (Stokes) performed on Unipath (Oxoid) Diagnostic Sensitivity Test agar with 5% lysed horse blood.
Testing of Staphylococci--Staphylococcus aureus (Oxford strain) NCTC 6571
Inocula for test and control organisms were prepared from overnight 37° C. Unipath (Oxoid) Brain Heart Infusion broth cultures. Prom these well-mixed cultures, 2 drops ([…]) were transferred to 3 ml sterile water. This suspension was used to moisten sterile cotton tipped swabs which were then used with a rotary plater for inoculation of test plates.
The following disc sets were used for sensitivity testing:
Methicillin Sensitivity Testing
Methicillin (cloxacillin) sensitivity for Staphylococci was confirmed using a methicillin test strips (Methi-test, Medical Wire Limited--MW981) and a heavy inoculum. This was prepared by adding 5 colonies from an overnight nutrient agar plate culture 3 ml water.
For each organism, including sensitive and resistant controls, a loop was charged with the heavy inoculum suspension and streaked across a Unipath (Oxoid) Diagnostic Sensitivity Test plus 5% lysed horse blood agar plate in a single direction. A methicillin strip was then placed on the surface of the plate at right angles to the inocula. […]

| Molecule | in vitro resistance of strain [5] | in vitro resistance of strain [7] | other results |
| --- | --- | --- | --- |
| O=S1(=O)CCNCN1 [Taurultam] | – | – | half-life in vivo [1]: short half-life in vivo; TNF production ([2]; added to antibiotic-treated cultures): prevents a rise in TNF production; neutralization of released endotoxins ([2]; antibiotic-treated cultures): nearly complete neutralization of released endotoxins; rate of bacterial killing [3]: kills bacteria slowly; resistance development [3]: no resistance development by microbes has been observed; antimicrobial spectrum [4]: broad-spectrum activity against aerobic and anaerobic bacteria, mycobacteria and fungi |
| Teicoplanin | resistance in vitro | – | – |
| CN[C@H](CC(C)C)C(=O)N[C@H]1C(=O)N[C@@H](CC(N)=O)C(=O)N[C@H]2C(=O)N[C@H]3C(=O)N[C@H](C(=O)N[C@H](C(=O)O)c4cc(O)cc(O)c4-c4cc3ccc4O)[C@H](O)c3ccc(c(Cl)c3)Oc3cc2cc(c3O[C@@H]2O[C@H](CO)[C@@H](O)[C@H](O)[C@H]2O[C@H]2C[C@](C)(N)[C@H](O)[C@H](C)O2)Oc2ccc(cc2Cl)[C@H]1O [Vancomycin] | resistance in vitro | – | VE30: Resistance to Vancomycin [6]: S |
| Gentamicin | high level gentamicin resistance | – | – |
| CCC[C@@H]1C[C@@H](C(=O)N[C@@H]([C@H]2O[C@H](SC)[C@H](O)[C@@H](O)[C@H]2O)[C@H](C)Cl)N(C)C1 [Clindamycin, clindamycin] | – | resistant in vitro | – |
| O=C(O)c1cn(C2CC2)c2cc(N3CCNCC3)c(F)cc2c1=O [Ciprofloxacin] | – | resistant in vitro | – |
| C/C(=C\C(=O)OCCCCCCCCC(=O)O)C[C@@H]1OC[C@H](C[C@@H]2O[C@H]2[C@@H](C)[C@H](C)O)[C@@H](O)[C@H]1O [Mupirocin] | – | resistant in vitro | – |
| COc1cccc(OC)c1C(=O)N[C@@H]1C(=O)N2[C@@H]1SC(C)(C)[C@@H]2C(=O)O [Methicillin, methicillin] | – | resistant in vitro | – |
| CC[C@H]1OC(=O)[C@H](C)[C@@H](O[C@H]2C[C@@](C)(OC)[C@@H](O)[C@H](C)O2)[C@H](C)[C@@H](O[C@@H]2O[C@H](C)C[C@H](N(C)C)[C@H]2O)[C@](C)(O)C[C@@H](C)C(=O)[C@H](C)[C@@H](O)[C@]1(C)O [Erythromycin] | resistance in vitro | resistant in vitro | – |
| Cc1onc(-c2ccccc2Cl)c1C(=O)N[C@@H]1C(=O)N2[C@@H]1SC(C)(C)[C@@H]2C(=O)O [Cloxacillin] | – | resistant in vitro | disc sensitivity, methicillin (cloxacillin) [8]: S (Test zones <5 mm smaller than the control zone are SENSITIVE) |
| CC1(C)S[C@@H]2[C@H](NC(=O)[C@H](N)c3ccccc3)C(=O)N2[C@H]1C(=O)O [Ampicillin] | resistance in vitro | – | – |

From US5972933A, “Method of treating microbial infections” (Ed. Geistlich Sohne AG Fur Chemische Industrie, priority 1998, dated 1999)
